Columns and labels:
LOLRI [1] = test: Pre-emergence herbicidal action against LOLRI; assay type: in vivo, Lolium rigidum; settings: application rate 80 g/ha, scored visually after about 3 weeks vs untreated controls (100% = plants have died, 0% = like control plants)
From the text: (§1) 1. Pre-emergence herbicidal action against harmful plants and crop plant compatibility Seeds of monocotyledonous and dicotyledonous weed plants and crop plants are placed in plastic or wood-fibre pots and covered with soil. The compounds of the invention, formulated in the form of wettable powders (WP) or as emulsion concentrates (EC), are then applied onto the surface of the covering soil as aqueous suspension or emulsion with addition of 0.5% additive at a water application rate of 600 l/ha (converted). After the treatment, the pots are placed in a greenhouse and kept under good growth conditions for the trial plants. After about 3 weeks, the effect of the preparations is scored visually in comparison with untreated controls as percentages. For example, 100% activity=the plants have died, 0% activity=like control plants. [table]

ABUTH [2] = test: Pre-emergence herbicidal action against ABUTH; assay type: in vivo, Abutilon theophrasti; settings: application rate 80 g/ha, scored visually after about 3 weeks vs untreated controls (100% = plants have died, 0% = like control plants)
From the text: as §1

SETVI [3] = test: Post-emergence herbicidal action against SETVI; assay type: in vivo, Setaria viridis; settings: application rate 80 g/ha, rated visually after about 3 weeks
Outline: (§2)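 One-leaf-stage plants (2–3 weeks after sowing in sandy loam) received a foliar spray of WP- or EC-formulated compound in water with 0.5% additive at 600 l/ha. Plants stayed under optimum greenhouse conditions for about 3 weeks before visual scoring against controls.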

ABUTH [4] = test: Post-emergence herbicidal action against ABUTH; assay type: in vivo, Abutilon theophrasti; settings: application rate 80 g/ha, rated visually about 3 weeks after treatment
Outline: as §2

STEME [5] = test: Pre-emergence herbicidal action against STEME; assay type: in vivo, Stellaria media; settings: application rate 80 g/ha
From the text: as §1

VIOTR [6] = test: Pre-emergence herbicidal action against VIOTR; assay type: in vivo, Viola tricolor; settings: application rate 80 g/ha
From the text: as §1

ALOMY [7] = test: Pre-emergence herbicidal action against ALOMY; assay type: in vivo, Alopecurus myosuroides; settings: application rate 80 g/ha, scored visually after about 3 weeks vs untreated controls (100% = plants have died, 0% = like control plants)
From the text: as §1

AVEFA [8] = test: Post-emergence herbicidal action against AVEFA; assay type: in vivo, Avena fatua; settings: application rate 80 g/ha, rated visually after about 3 weeks
Outline: as §2

AMARE [9] = test: Post-emergence herbicidal action against AMARE; assay type: in vivo, Amaranthus retroflexus; settings: application rate 80 g/ha, rated visually about 3 weeks after treatment
Outline: as §2

LOLRI [10] = test: Post-emergence herbicidal action against LOLRI; assay type: in vivo, Lolium rigidum; settings: application rate 80 g/ha, rated visually after about 3 weeks
Outline: as §2

AMARE [11] = test: Pre-emergence herbicidal action against AMARE; assay type: in vivo, Amaranthus retroflexus; settings: application rate 80 g/ha
From the text: as §1

STEME [12] = test: Post-emergence herbicidal action against STEME; assay type: in vivo, Stellaria media; settings: application rate 80 g/ha, rated visually about 3 weeks after treatment
Outline: as §2

PHBPU [13] = test: Post-emergence herbicidal action against PHBPU; assay type: in vivo, Pharbitis purpurea; settings: application rate 80 g/ha, rated visually about 3 weeks after treatment
Outline: as §2

AVEFA [14] = test: Pre-emergence herbicidal action against AVEFA; assay type: in vivo, Avena fatua; settings: application rate 80 g/ha, scored visually after about 3 weeks vs untreated controls (100% = plants have died, 0% = like control plants)
From the text: as §1

POLCO [15] = test: Pre-emergence herbicidal action against POLCO; assay type: in vivo, Polygonum convolvulus; settings: application rate 80 g/ha
From the text: as §1

ALOMY [16] = test: Post-emergence herbicidal action against ALOMY; assay type: in vivo, Alopecurus myosuroides; settings: application rate 80 g/ha, rated visually after about 3 weeks
Outline: as §2

VERPE [17] = test: Post-emergence herbicidal action against VERPE; assay type: in vivo, Veronica persica; settings: application rate 80 g/ha
Outline: as §2

SETVI [18] = test: Pre-emergence herbicidal action against SETVI; assay type: in vivo, Setaria viridis; settings: application rate 80 g/ha, scored visually after about 3 weeks vs untreated controls (100% = plants have died, 0% = like control plants)
From the text: as §1

POLCO [19] = test: Post-emergence herbicidal action against POLCO; assay type: in vivo, Polygonum convolvulus; settings: application rate 80 g/ha, rated visually about 3 weeks after treatment
Outline: as §2

PHBPU [20] = test: Pre-emergence herbicidal action against PHBPU; assay type: in vivo, Pharbitis purpurea; settings: application rate 80 g/ha
From the text: as §1

VERPE [21] = test: Pre-emergence herbicidal action against VERPE; assay type: in vivo, Veronica persica; settings: application rate 80 g/ha
From the text: as §1

ECHCG [22] = test: Pre-emergence herbicidal action against ECHCG; assay type: in vivo, Echinochloa crus-galli; settings: application rate 80 g/ha, scored visually after about 3 weeks vs untreated controls (100% = plants have died, 0% = like control plants)
From the text: as §1

HORMU [23] = test: Pre-emergence herbicidal action against HORMU; assay type: in vivo, Hordeum murinum; settings: application rate 80 g/ha
From the text: as §1

ECHCG [24] = test: Post-emergence herbicidal action against ECHCG; assay type: in vivo, Echinochloa crus-galli; settings: application rate 80 g/ha, rated visually after about 3 weeks
Outline: as §2

VIOTR [25] = test: Post-emergence herbicidal action against VIOTR; assay type: in vivo, Viola tricolor; settings: application rate 80 g/ha, rated visually about 3 weeks after treatment
Outline: as §2

HORMU [26] = test: Post-emergence herbicidal action against HORMU; assay type: in vivo, Hordeum murinum; settings: application rate 80 g/ha
Outline: as §2

MATIN [27] = test: Pre-emergence herbicidal action against MATIN; assay type: in vivo, Matricaria inodora; settings: application rate 80 g/ha, scored visually after about 3 weeks vs untreated controls (100% = plants have died, 0% = like control plants)
From the text: as §1

MATIN [28] = test: Post-emergence herbicidal action against MATIN; assay type: in vivo, Matricaria inodora; settings: application rate 80 g/ha, rated visually about 3 weeks after treatment
Outline: as §2

SMILES	Herbicidal action against [%] LOLRI (LOLRI [1]) [%]	Herbicidal action against [%] SETVI (SETVI [3]) [%]	Herbicidal action against [%] STEME (STEME [5]) [%]	Herbicidal action against [%] VIOTR (VIOTR [6]) [%]	Herbicidal action against [%] ALOMY (ALOMY [7]) [%]	Herbicidal action against [%] AVEFA (AVEFA [8]) [%]	Herbicidal action against [%] AMARE (AMARE [9]) [%]	Herbicidal action against [%] LOLRI (LOLRI [10]) [%]	Herbicidal action against [%] AMARE (AMARE [11]) [%]	Herbicidal action against [%] STEME (STEME [12]) [%]	Herbicidal action against [%] PHBPU (PHBPU [13]) [%]	Herbicidal action against [%] AVEFA (AVEFA [14]) [%]	Herbicidal action against [%] POLCO (POLCO [15]) [%]	Herbicidal action against [%] ALOMY (ALOMY [16]) [%]	Herbicidal action against [%] SETVI (SETVI [18]) [%]	Herbicidal action against [%] POLCO (POLCO [19]) [%]	Herbicidal action against [%] PHBPU (PHBPU [20]) [%]	Herbicidal action against [%] ECHCG (ECHCG [22]) [%]	Herbicidal action against [%] ECHCG (ECHCG [24]) [%]	Herbicidal action against [%] MATIN (MATIN [27]) [%]	further results
CC(C)C(C#N)NC(=O)C1C=CC(NC(=O)C2(C)CC(c3cc(F)cc(F)c3)=NO2)C1 (mixture of isomers) [II-12]	90	80	90	80	90	80	80	80	90	90	80	80	100	90	90	80	–	–	–	–	Herbicidal action against [%] ABUTH (ABUTH [2]): 80%; Herbicidal action against [%] ABUTH (ABUTH [4]): 80%; Herbicidal action against [%] VERPE (VERPE [17]): 80%
CN(C)C(=O)C1=CCC(NC(=O)C2(C)CC(c3cccc(F)c3)=NO2)C1 (mixture of isomers) [IV-02]	100	–	90	90	100	–	–	–	100	–	–	90	100	–	90	80	80	90	–	–	Herbicidal action against [%] ABUTH (ABUTH [2]): 80%; Herbicidal action against [%] VERPE (VERPE [21]): 90%; Herbicidal action against [%] HORMU (HORMU [23]): 100%
CC1(C(=O)NC2CC=C(C(=O)NS(C)(=O)=O)C2)CC(c2cccc(F)c2)=NO1 (mixture of isomers) [IV-07]	90	80	100	90	100	80	80	90	80	90	80	80	80	90	100	80	90	–	80	80	Herbicidal action against [%] VIOTR (VIOTR [25]): 80%; Herbicidal action against [%] HORMU (HORMU [26]): 90%; Herbicidal action against [%] HORMU (HORMU [23]): 90%; Herbicidal action against [%] VERPE (VERPE [17]): 80%
CC1(C(=O)N[C@H]2C=C[C@@H](C(=O)O)C2)CC(c2cccc(F)c2)=NO1 (stereo partly shown) [Example I-002]	100	80	100	80	90	80	–	80	90	90	80	80	90	90	100	–	90	90	80	80	Herbicidal action against [%] HORMU (HORMU [23]): 80%; Herbicidal action against [%] MATIN (MATIN [28]): 80%
COC(=O)[C@@H]1C=C[C@H](NC(=O)C2(C)CC(c3cccc(F)c3)=NO2)C1 (stereo partly shown) [Example I-004]	90	80	100	–	100	90	80	80	80	80	–	90	100	80	100	–	90	100	80	80	–
C=CC1(C(=O)NC2C=CC(C(=O)OC)C2)CC(c2cc(F)cc(F)c2)=NO1 (stereo not shown) [Example I-012]	100	90	100	90	100	100	90	90	100	80	90	90	90	90	100	80	90	100	90	90	Herbicidal action against [%] ABUTH (ABUTH [2]): 90%; Herbicidal action against [%] ABUTH (ABUTH [4]): 80%; Herbicidal action against [%] VIOTR (VIOTR [25]): 80%; Herbicidal action against [%] VERPE (VERPE [21]): 100%; Herbicidal action against [%] HORMU (HORMU [26]): 100%; Herbicidal action against [%] HORMU (HORMU [23]): 90%; Herbicidal action against [%] VERPE (VERPE [17]): 80%; Herbicidal action against [%] MATIN (MATIN [28]): 90%
CONC(=O)[C@@H]1C=C[C@H](NC(=O)C2(C)CC(c3cc(F)cc(F)c3)=NO2)C1 (stereo partly shown) [II-02]	90	80	100	90	90	80	80	80	100	90	–	90	100	80	100	–	90	80	80	90	–

From patent US12319664B2, “Herbicidally active 3-phenylisoxazoline-5-carboxamides of cyclopentenylcarboxylic acid derivatives” (Bayer Aktiengesellschaft, priority 2018, dated 2025)
